Bounds are passed on as bounds.

The values below come from patent US12534472B2, “Morphic forms of trilaciclib and methods of manufacture thereof” (Pharmacosmos Holding A/S, priority 2020, dated 2026).

Holding throughout (assay type): physicochemical
Data set [1] can be described thus: Thermodynamic solubility in water at pH 4.2. To be noted: for Observations at T = 24 hours: 30 mg/mL in water at pH 4.2, agitated at ambient temperature ca. 24 hours; for Observations at T = 0 hours: 30 mg/mL in water at pH 4.2, ambient temperature. How it is done: Thermodynamic solubility was carried out for Pattern 1, Pattern 2/6 mixture, Pattern 3, amorphous di-HCl salts and Pattern 7 in water at pH 4.2. All samples were prepared at 30 mg/mL. Initial observations were made. The samples were agitated at ambient temperature for ca. 24 hours. The samples were collected and observations made. Observed solids were isolated via centrifugation. The mother liquor from the filtered sample was analyzed by HPLC. The pH 4.3 solution was prepared by diluting glacial acetic acid (11.6 mL) to 100 mL in deionized water, then adding sodium acetate (1.07 g) and acetic acid solution (5.9 mL) preparing up to 500 mL with deionized water; then the pH was adjusted to 4.2. The above technique was used to generate the images in FIG. 60.

Data set [2] can be described thus: Solvent solubility screen (approximate solubility). How it is done:
The solvent solubility experiment was carried out using various solvents to determine solid formation. A known volume aliquot (typically 5 volumes) of solvent was added to approximately 10 mg of amorphous Compound 1 as a dihydrochloride. Between each addition, the mixture was checked for dissolution and where no dissolution was apparent, the mixture was heated to ca. 40° C. and checked again. This procedure was continued until dissolution was observed or until 100 volumes of solvent had been added. All observed solids were isolated and analyzed by XRPD.
Examples of solvents include, but are not limited to, 1,4 dioxane, methanol, ethanol, propanol, butanol, butanone, ethoxyethanol, trifluoroethanol, methyl-THF, acetone, acetonitrile, anisole, chlorobenzene, DMSO, DMF, cumene, dichloromethane, ethyl acetate, ethylene glycol, heptane, isopropyl acetate, nitromethane, n-methylpyrrolidone, MIBK, t-BME, tetrahydrofuran, toluene, water and mixtures thereof. The above technique was used to generate the images in FIG. 8, FIG. 9, FIG. 10, FIG. 11, FIG. 12, FIG. 14.

The nature of data set [3]: Solubility of trilaciclib (general statement).

`CN1CCN(c2ccc(Nc3ncc4cc5n(c4n3)C3(CCCCC3)CNC5=O)nc2)CC1.Cl.Cl` [Amorphous Di-HCl]: the “Observations at T = 24 hours” value in data set [1] is “Yellow solution”. Moreover, in data set [1], the “Observations at T = 0 hours” value is reported as “Yellow solution (dissolved”. The “Approx. Solubility” value was less than 5000 µg/mL in data set [2] (1,4-Dioxane, heated to ca. 40° C. where no dissolution); less than 5000 µg/mL in data set [2] (1-Butanol, heated to ca. 40° C. where no dissolution); greater than 200000 µg/mL in data set [2] (2,2,2-Trifluoroethanol); less than 5000 µg/mL in data set [2] (2-Butanone, heated to ca. 40° C. where no dissolution); less than 5000 µg/mL in data set [2] (2-Ethoxyethanol, heated to ca. 40° C. where no dissolution); less than 5000 µg/mL in data set [2] (2-Methyl THF, heated to ca. 40° C. where no dissolution). Also, the “Approx. Solubility” value is “ca 5 mg/mL” in data set [2] (2-Propanol, heated to ca. 40° C. where no dissolution); less than 5000 µg/mL in data set [2] (Acetone, heated to ca. 40° C. where no dissolution); less than 5000 µg/mL in data set [2] (Acetonitrile/water (90:10% v/v), heated to ca. 40° C. where no dissolution); less than 5000 µg/mL in data set [2] (Acetonitrile, heated to ca. 40° C. where no dissolution); less than 5000 µg/mL in data set [2] (Anisole, heated to ca. 40° C. where no dissolution); less than 5000 µg/mL in data set [2] (Chlorobenzene, heated to ca. 40° C. where no dissolution). Also, the “Approx. Solubility” value was “ca 5 mg/mL” in data set [2] (Cumene, heated to ca. 40° C. where no dissolution); less than 5000 µg/mL in data set [2] (DMF, heated to ca. 40° C. where no dissolution); “ca 5 mg/mL” in data set [2] (DMSO, heated to ca. 40° C. where no dissolution); greater than 200000 µg/mL in data set [2] (Deionized Water); less than 5000 µg/mL in data set [2] (Dichloromethane, heated to ca. 40° C. where no dissolution); less than 5000 µg/mL in data set [2] (Ethanol/water (85:15% v/v), heated to ca. 40° C. where no dissolution). In addition, the “Approx. Solubility” value in data set [2] (Ethanol, heated to ca. 40° C. where no dissolution) was “ca 5 mg/mL”; in data set [2] (Ethyl Acetate, heated to ca. 40° C. where no dissolution), less than 5000 µg/mL; in data set [2] (Ethylene glycol) it was 50000 µg/mL; in data set [2] (Heptane, heated to ca. 40° C. where no dissolution), less than 5000 µg/mL; in data set [2] (Isopropyl acetate, heated to ca. 40° C. where no dissolution) it was less than 5000 µg/mL; in data set [2] (Methanol/water (95:5% v/v)), 20000 µg/mL. Moreover, the “Approx. Solubility” value in data set [2] (Methanol, heated to ca. 40° C. where no dissolution) was “ca 5 mg/mL”; in data set [2] (Methyl isobutyl ketone, heated to ca. 40° C. where no dissolution), less than 5000 µg/mL; in data set [2] (N-Methylpyrrolidone, heated to ca. 40° C. where no dissolution), less than 5000 µg/mL; in data set [2] (Nitromethane) it was 33000 µg/mL; in data set [2] (Tetrahydrofuran/water (99:1% v/v), heated to ca. 40° C. where no dissolution), less than 5000 µg/mL; in data set [2] (Tetrahydrofuran, heated to ca. 40° C. where no dissolution), less than 5000 µg/mL. Moreover, the “Approx. Solubility” value in data set [2] (Toluene, heated to ca. 40° C. where no dissolution) was less than 5000 µg/mL; in data set [2] (t-Butylmethyl ether, heated to ca. 40° C. where no dissolution), less than 5000 µg/mL.
In the case of `CN1CCN(c2ccc(Nc3ncc4cc5n(c4n3)C3(CCCCC3)CNC5=O)nc2)CC1` [Pattern 7, 2′-((5-(4-methylpiperazin-1-yl)pyridin-2-yl)amino)-7′,8′-dihydro-6′H-spiro[cyclohexane-1,9′-pyrazino[1′,2′:1,5]pyrrolo[2,3-d]pyrimidin]-6′-one], in data set [1], the “Observations at T = 24 hours” value is reported as “Off-white slurry” and the “Observations at T = 0 hours” value was “Off-white slurry”.
In the case of `CN1CCN(c2ccc(Nc3ncc4cc5n(c4n3)C3(CCCCC3)CNC5=O)nc2)CC1` [trilaciclib, 2′-((5-(4-methylpiperazin-1-yl)pyridin-2-yl)amino)-7′,8′-dihydro-6′H-spiro[cyclohexane-1,9′-pyrazino[1′,2′:1,5]pyrrolo[2,3-d]pyrimidin]-6′-one], the “solubility in DMSO” value in data set [3] (DMSO) is “practically insoluble”. In addition, the solubility in water entry in data set [3] (water) was “not very soluble”.
